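The compound was tested at five concentrations on cells cultured in 96-well plates, with a 48-hour exposure period. TGI marks complete inhibition of growth.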
Legend:
Test in all cases: growth of human tumour cells (NCI), 48 h
HT29 colon = system: HT29 colon
RXF 393 renal = system: RXF 393 renal
SK-MEL-5 melanoma = system: SK-MEL-5 melanoma
LOX IMVI melanoma = system: LOX IMVI melanoma
RPMI-8226 leukemia = system: RPMI-8226 leukemia
SK-MEL-28 melanoma = system: SK-MEL-28 melanoma
SF-268 CNS = system: SF-268 CNS
T-47D breast = system: T-47D breast
HL-60(TB) leukemia = system: HL-60(TB) leukemia
SK-OV-3 ovarian = system: SK-OV-3 ovarian
K-562 leukemia = system: K-562 leukemia
SR leukemia = system: SR leukemia
SN12C renal = system: SN12C renal
A549 NSCLC = system: A549 NSCLC
IGROV1 ovarian = system: IGROV1 ovarian
MDA-N = system: MDA-N
SF-295 CNS = system: SF-295 CNS
UACC-62 melanoma = system: UACC-62 melanoma
M14 melanoma = system: M14 melanoma
PC-3 prostate = system: PC-3 prostate
HOP-62 NSCLC = system: HOP-62 NSCLC
SNB-75 CNS = system: SNB-75 CNS
MOLT-4 leukemia = system: MOLT-4 leukemia
KM12 colon = system: KM12 colon
COLO 205 colon = system: COLO 205 colon
DU-145 prostate = system: DU-145 prostate
NCI-H23 lung = system: NCI-H23 lung
HCC-2998 colon = system: HCC-2998 colon
SW-620 colon = system: SW-620 colon
CAKI-1 renal = system: CAKI-1 renal
UACC-257 melanoma = system: UACC-257 melanoma
MALME-3M melanoma = system: MALME-3M melanoma
786-0 renal = system: 786-0 renal
MCF7 breast = system: MCF7 breast
EKVX NSCLC = system: EKVX NSCLC
TK-10 renal = system: TK-10 renal
HCT-15 colon = system: HCT-15 colon
CCRF-CEM leukemia = system: CCRF-CEM leukemia
MDA-MB-231 breast = system: MDA-MB-231 breast
OVCAR-8 ovarian = system: OVCAR-8 ovarian

Measured: TGI

Cc1c(CCN=P(c2ccccc2)(c2ccccc2)c2ccccc2)c(=O)n2c([nH]c3ccccc32)c1C#N
> 10 µM: all assays above
